Measurements taken from patent publication US10597388B2, “Pyridazinone herbicides” (FMC CORPORATION, priority 2014, dated 2020).

Experiments:
Experiment in all cases: Test C greenhouse herbicide test, pre- and postemergence
Format in all cases: in vivo
[1] = system: crabgrass, large (large crabgrass, Digitaria sanguinalis)
How it was run: (§1)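 Seeds sown in loam–sand blend treated preemergence; plants in peat-based medium sprayed postemergence at 2–18 cm (1- to 4-leaf stage); chemicals in non-phytotoxic solvent with surfactant. Greenhouse 13–15 d, then visual rating versus controls on 0–100 scale (0 no effect, 100 complete control).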

[2] = system: velvetleaf (Abutilon theophrasti)
How it was run: as §1

[3] = system: ragweed (common ragweed, Ambrosia elatior)
How it was run: as §1

[4] = system: foxtail, giant (giant foxtail, Setaria faberii)
How it was run: as §1

[5] = system: ryegrass, Italian (Italian ryegrass, Lolium multiflorum)
How it was run: as §1

soybean (Glycine max) = system: soybean (Glycine max)
How it was run: as §1

[6] = system: galium (catchweed bedstraw, Galium aparine)
How it was run: as §1

[7] = system: oilseed rape (Brassica napus)
How it was run: as §1

[8] = system: nutsedge, yellow (yellow nutsedge, Cyperus esculentus)
How it was run: as §1

corn (Zea mays) = system: corn (Zea mays)
How it was run: as §1

[9] = system: wheat (winter wheat, Triticum aestivum)
How it was run: as §1

[10] = system: lambsquarters (Chenopodium album)
How it was run: as §1

[11] = system: blackgrass (Alopecurus myosuroides)
How it was run: as §1

[12] = system: pigweed (Amaranthus retroflexus)
How it was run: as §1

[13] = system: barnyardgrass (Echinochloa crus-galli)
How it was run: as §1

[14] = Postemergence, 31 g ai/ha, 0 to 100 scale (0 no effect, 100 complete control)
[15] = Postemergence, 125 g ai/ha, scale 0 to 100, 0 is no effect, 100 is complete control
[16] = Postemergence, 250 g ai/ha, scale 0 to 100, 0 no effect, 100 complete control, 13 to 15 d
[17] = Preemergence, 31 g ai/ha, scale 0 to 100, 0 is no effect, 100 is complete control
[18] = Preemergence, 62 g ai/ha, scale 0 to 100, 0 is no effect, 100 is complete control
[19] = Preemergence, 125 g ai/ha, scale 0 to 100, 0 is no effect, 100 is complete control
[20] = Preemergence, 250 g ai/ha, scale 0 to 100, 0 no effect, 100 complete control
[21] = postemergence, 62 g ai/ha, scale 0 to 100, 0 no effect, 100 complete control

Compound: Cc1cc2ccccc2c(-c2c(O)c(C)nn(C)c2=O)c1C [Compound 34]
- Crabgrass, Large plant response rating [1, 14]: 5
- Plant response rating, Crabgrass, Large [1, 15]: 20
- Plant response rating, Crabgrass, Large [1, 16]: 25
- Plant response rating, Crabgrass, Large [1, 17]: 0
- Plant response rating, Crabgrass, Large [1, 18]: 10
- Plant response rating, Crabgrass, Large [1, 19]: 25
- Crabgrass, Large plant response rating [1, 20]: 30
- Crabgrass, Large plant response rating [1, 21]: 10
- Velvetleaf plant response rating [2, 14]: 50
- Plant response rating, Velvetleaf [2, 15]: 100
- Plant response rating, Velvetleaf [2, 16]: 90
- Plant response rating, Velvetleaf [2, 18]: 80
- Plant response rating, Velvetleaf [2, 19]: 85
- Velvetleaf plant response rating [2, 20]: 98
- Velvetleaf plant response rating [2, 21]: 80
- Ragweed plant response rating [3, 14]: 85
- Plant response rating, Ragweed [3, 15]: 95
- Plant response rating, Ragweed [3, 16]: 95
- Plant response rating, Ragweed [3, 17]: 80
- Plant response rating, Ragweed [3, 18]: 80
- Plant response rating, Ragweed [3, 19]: 90
- Ragweed plant response rating [3, 20]: 95
- Ragweed plant response rating [3, 21]: 98
- Foxtail, Giant plant response rating [4, 14]: 10
- Plant response rating, Foxtail, Giant [4, 15]: 25
- Plant response rating, Foxtail, Giant [4, 16]: 35
- Plant response rating, Foxtail, Giant [4, 17]: 0
- Plant response rating, Foxtail, Giant [4, 18]: 65
- Plant response rating, Foxtail, Giant [4, 19]: 75
- Foxtail, Giant plant response rating [4, 20]: 70
- Foxtail, Giant plant response rating [4, 21]: 20
- Ryegrass, Italian plant response rating [5, 14]: 80
- Plant response rating, Ryegrass, Italian [5, 15]: 90
- Plant response rating, Ryegrass, Italian [5, 16]: 90
- Plant response rating, Ryegrass, Italian [5, 17]: 45
- Plant response rating, Ryegrass, Italian [5, 18]: 85
- Plant response rating, Ryegrass, Italian [5, 19]: 85
- Ryegrass, Italian plant response rating [5, 20]: 95
- Ryegrass, Italian plant response rating [5, 21]: 80
- Soybean plant response rating (soybean (Glycine max); [14]): 5
- Plant response rating, Soybean (soybean (Glycine max); [15]): 15
- Plant response rating, Soybean (soybean (Glycine max); [16]): 5
- Plant response rating, Soybean (soybean (Glycine max); [18]): 10
- Plant response rating, Soybean (soybean (Glycine max); [19]): 0
- Soybean plant response rating (soybean (Glycine max); [20]): 5
- Soybean plant response rating (soybean (Glycine max); [21]): 5
- Galium plant response rating [6, 14]: 90
- Plant response rating, Galium [6, 15]: 95
- Plant response rating, Galium [6, 16]: 95
- Plant response rating, Galium [6, 17]: 95
- Plant response rating, Galium [6, 18]: 95
- Plant response rating, Galium [6, 19]: 90
- Galium plant response rating [6, 20]: 100
- Galium plant response rating [6, 21]: 95
- Oilseed Rape plant response rating [7, 14]: 30
- Plant response rating, Oilseed Rape [7, 15]: 50
- Plant response rating, Oilseed Rape [7, 16]: 20
- Plant response rating, Oilseed Rape [7, 17]: 10
- Plant response rating, Oilseed Rape [7, 18]: 25
- Plant response rating, Oilseed Rape [7, 19]: 90
- Oilseed Rape plant response rating [7, 20]: 90
- Oilseed Rape plant response rating [7, 21]: 30
- Nutsedge, Yellow plant response rating [8, 14]: 45
- Plant response rating, Nutsedge, Yellow [8, 15]: 85
- Plant response rating, Nutsedge, Yellow [8, 16]: 85
- Plant response rating, Nutsedge, Yellow [8, 17]: 25
- Plant response rating, Nutsedge, Yellow [8, 18]: 25
- Plant response rating, Nutsedge, Yellow [8, 19]: 35
- Nutsedge, Yellow plant response rating [8, 20]: 65
- Nutsedge, Yellow plant response rating [8, 21]: 60
- Corn plant response rating (corn (Zea mays); [14]): 0
- Plant response rating, Corn (corn (Zea mays); [15]): 5
- Plant response rating, Corn (corn (Zea mays); [16]): 5
- Plant response rating, Corn (corn (Zea mays); [17]): 0
- Plant response rating, Corn (corn (Zea mays); [18]): 0
- Plant response rating, Corn (corn (Zea mays); [19]): 10
- Corn plant response rating (corn (Zea mays); [20]): 0
- Corn plant response rating (corn (Zea mays); [21]): 5
- Wheat plant response rating [9, 14]: 5
- Plant response rating, Wheat [9, 15]: 10
- Plant response rating, Wheat [9, 16]: 0
- Plant response rating, Wheat [9, 18]: 0
- Plant response rating, Wheat [9, 19]: 5
- Wheat plant response rating [9, 20]: 25
- Wheat plant response rating [9, 21]: 5
- Lambsquarters plant response rating [10, 14]: 90
- Plant response rating, Lambsquarters [10, 15]: 95
- Plant response rating, Lambsquarters [10, 16]: 100
- Plant response rating, Lambsquarters [10, 17]: 80
- Plant response rating, Lambsquarters [10, 18]: 90
- Plant response rating, Lambsquarters [10, 19]: 80
- Lambsquarters plant response rating [10, 20]: 75
- Lambsquarters plant response rating [10, 21]: 90
- Blackgrass plant response rating [11, 14]: 10
- Plant response rating, Blackgrass [11, 15]: 35
- Plant response rating, Blackgrass [11, 16]: 60
- Plant response rating, Blackgrass [11, 17]: 5
- Plant response rating, Blackgrass [11, 18]: 50
- Plant response rating, Blackgrass [11, 19]: 85
- Blackgrass plant response rating [11, 20]: 90
- Blackgrass plant response rating [11, 21]: 10
- Pigweed plant response rating [12, 14]: 90
- Plant response rating, Pigweed [12, 15]: 80
- Plant response rating, Pigweed [12, 16]: 98
- Plant response rating, Pigweed [12, 17]: 100
- Plant response rating, Pigweed [12, 18]: 100
- Plant response rating, Pigweed [12, 19]: 100
- Pigweed plant response rating [12, 20]: 100
- Pigweed plant response rating [12, 21]: 85
- Barnyardgrass plant response rating [13, 14]: 20
- Plant response rating, Barnyardgrass [13, 15]: 35
- Plant response rating, Barnyardgrass [13, 16]: 35
- Plant response rating, Barnyardgrass [13, 17]: 60
- Plant response rating, Barnyardgrass [13, 18]: 55
- Plant response rating, Barnyardgrass [13, 19]: 65
- Barnyardgrass plant response rating [13, 20]: 75
- Barnyardgrass plant response rating [13, 21]: 25
